Reference: BindingDB's records for doi:10.1021/jm990281p (Parke-Davis Pharmaceutical Research, 2000)

Tests used:
[1] = biological target: T1, Gag-Pol polyprotein [489-587] (Human immunodeficiency virus 1, UniProt P04585); test: Protease Inhibition Assay
T1 construct: 489-587
Description: (§1) Sensitivity of HIV-1 protease activity to protease inhibitors was determined by a peptide substrate cleavage assay. Protease products were analyzed on a reverse-phase high-pressure liquid chromatograph.

[2] = biological target: T2, Dimer of Gag-Pol polyprotein [489-587] (Human immunodeficiency virus 1, UniProt P12497); test: Protease Inhibition Assay
T2 construct: 489-587
Description: as §1

Q: With `Cc1cc(SC2C(=O)CC(CCc3ccc(O)cc3)(C3CCCCC3)OC2=O)c(C(C)(C)C)cc1OS(=O)(=O)Cn1ccnc1` (stereo unspecified) as the compound, how does the IC50 [1] read?
A: 8 nM

Q: For `Cc1cc(SC2C(=O)CC(C)(CCc3ccc(O)cc3)OC2=O)c(C(C)(C)C)cc1OS(=O)(=O)Cn1ccnc1` (stereo unspecified), which IC50 [1] is on record?
A: 2 nM

Q: `Cc1cc(SC2C(=O)CC(CCc3ccc(O)cc3)(C(C)C)OC2=O)c(C(C)(C)C)cc1OS(=O)(=O)Cn1ccnc1` (stereo unspecified) was tested. Which IC50 [1] did it give?
A: 2.4 nM

Q: `Cc1cc(SC2C(=O)CC(CCc3ccc(N)cc3)(C(C)C)OC2=O)c(C(C)(C)C)cc1OS(=O)(=O)c1nccn1C` (stereo unspecified) [4-({6-[2-(4-aminophenyl)ethyl]-4-hydroxy-2-oxo-6-(propan-2-yl)-5,6-dihydro-2H-pyran-3-yl}sulfanyl)-5-tert-butyl-2-methylphenyl 1-methyl-1H-imidazole-2-sulfonate] was tested. Which IC50 [2] did it give?
A: 2.2 nM

Q: `Cc1cc(SC2C(=O)CC(CCc3ccc(N)cc3)(C(C)C)OC2=O)c(C(C)(C)C)cc1OS(=O)(=O)c1ccccc1-c1cccs1` (stereo unspecified) [4-({6-[2-(4-aminophenyl)ethyl]-4-hydroxy-2-oxo-6-(propan-2-yl)-5,6-dihydro-2H-pyran-3-yl}sulfanyl)-5-tert-butyl-2-methylphenyl 2-(thiophen-2-yl)benzene-1-sulfonate] was tested. Which IC50 [2] did it give?
A: 18.5 nM

Q: Which IC50 [2] does the source give for `Cc1cc(SC2C(=O)CC(CCc3ccc(N)cc3)(C(C)C)OC2=O)c(C(C)(C)C)cc1OS(=O)(=O)c1cccc(-c2cccnc2)c1` (stereo unspecified) [4-({6-[2-(4-aminophenyl)ethyl]-4-hydroxy-2-oxo-6-(propan-2-yl)-5,6-dihydro-2H-pyran-3-yl}sulfanyl)-5-tert-butyl-2-methylphenyl 3-(pyridin-3-yl)benzene-1-sulfonate] here?
A: 4.1 nM

Q: With `Cc1cc(SC2C(=O)CC(CCc3ccc(O)cc3)(C(C)C)OC2=O)c(C(C)(C)C)cc1OS(=O)(=O)c1nccn1C` (stereo unspecified) [5-tert-butyl-4-({4-hydroxy-6-[2-(4-hydroxyphenyl)ethyl]-2-oxo-6-(propan-2-yl)-5,6-dihydro-2H-pyran-3-yl}sulfanyl)-2-methylphenyl 1-methyl-1H-imidazole-2-sulfonate] as the compound, how does the IC50 [2] read?
A: 2.4 nM

Q: For `Cc1cc(SC2C(=O)CC(CCc3ccc(O)cc3)(C(C)C)OC2=O)c(C(C)(C)C)cc1OS(C)(=O)=O` (stereo unspecified) [5-tert-butyl-4-({4-hydroxy-6-[2-(4-hydroxyphenyl)ethyl]-2-oxo-6-(propan-2-yl)-5,6-dihydro-2H-pyran-3-yl}sulfanyl)-2-methylphenyl methanesulfonate], which IC50 [2] is on record?
A: 2.2 nM

Q: How did the IC50 [2] turn out when `CCCC1(CCc2ccc(O)cc2)CC(=O)C(Sc2cc(C)c(OS(=O)(=O)c3nccn3C)cc2C(C)(C)C)C(=O)O1` (stereo unspecified) [5-tert-butyl-4-({4-hydroxy-6-[2-(4-hydroxyphenyl)ethyl]-2-oxo-6-propyl-5,6-dihydro-2H-pyran-3-yl}sulfanyl)-2-methylphenyl 1-methyl-1H-imidazole-2-sulfonate] was run?
A: 2.2 nM

Q: `Cc1cc(SC2C(=O)CC(CCc3ccc(O)cc3)(CC(C)C)OC2=O)c(C(C)(C)C)cc1OS(=O)(=O)c1nccn1C` (stereo unspecified) [5-tert-butyl-4-({4-hydroxy-6-[2-(4-hydroxyphenyl)ethyl]-6-(2-methylpropyl)-2-oxo-5,6-dihydro-2H-pyran-3-yl}sulfanyl)-2-methylphenyl 1-methyl-1H-imidazole-2-sulfonate] was tested. Which IC50 [2] did it give?
A: 3.6 nM

Q: With `Cc1cc(SC2C(=O)CC(C)(CCc3ccc(O)cc3)OC2=O)c(C(C)(C)C)cc1OS(=O)(=O)c1nccn1C` (stereo unspecified) [5-tert-butyl-4-({4-hydroxy-6-[2-(4-hydroxyphenyl)ethyl]-6-methyl-2-oxo-5,6-dihydro-2H-pyran-3-yl}sulfanyl)-2-methylphenyl 1-methyl-1H-imidazole-2-sulfonate] as the compound, how does the IC50 [2] read?
A: 2 nM

Q: `Cc1cc(SC2C(=O)CC(CCc3ccc(O)cc3)(C3CCCCC3)OC2=O)c(C(C)(C)C)cc1OS(=O)(=O)c1nccn1C` (stereo unspecified) [5-tert-butyl-4-({6-cyclohexyl-4-hydroxy-6-[2-(4-hydroxyphenyl)ethyl]-2-oxo-5,6-dihydro-2H-pyran-3-yl}sulfanyl)-2-methylphenyl 1-methyl-1H-imidazole-2-sulfonate] was tested. Which IC50 [2] did it give?
A: 8 nM

Q: With `Cc1cc(SC2C(=O)CC(CCc3ccccc3)(C(C)C)OC2=O)c(C(C)(C)C)cc1OS(=O)(=O)c1nccn1C` (stereo unspecified) [5-tert-butyl-4-{[4-hydroxy-2-oxo-6-(2-phenylethyl)-6-(propan-2-yl)-5,6-dihydro-2H-pyran-3-yl]sulfanyl}-2-methylphenyl 1-methyl-1H-imidazole-2-sulfonate] as the compound, how does the IC50 [2] read?
A: 3 nM

Q: Which Ki [2] does the source give for `Cc1cc(SC2C(=O)C[C@](CCc3ccc(O)cc3)(C(C)C)OC2=O)c(C(C)(C)C)cc1N` (stereo partly drawn) [(6R)-3-[(4-amino-2-tert-butyl-5-methylphenyl)sulfanyl]-4-hydroxy-6-[2-(4-hydroxyphenyl)ethyl]-6-(propan-2-yl)-5,6-dihydro-2H-pyran-2-one] here?
A: 13 nM

Q: With `Cc1cc(SC2C(=O)CC(CCc3ccccc3)(C(C)C)OC2=O)c(C(C)(C)C)cc1NS(=O)(=O)c1nccn1C` (stereo unspecified) [N-(5-tert-butyl-4-{[4-hydroxy-2-oxo-6-(2-phenylethyl)-6-(propan-2-yl)-5,6-dihydro-2H-pyran-3-yl]sulfanyl}-2-methylphenyl)-1-methyl-1H-imidazole-2-sulfonamide] as the compound, how does the IC50 [2] read?
A: 1.9 nM

Q: How did the IC50 ([2]; pH 6.2, 37 °C) turn out when `Cc1cc(SC2C(=O)CC(CCc3ccccc3)(C(C)C)OC2=O)c(C(C)(C)C)cc1NS(=O)(=O)c1ccc(C#N)cc1` (stereo unspecified) [N-(5-tert-butyl-4-{[4-hydroxy-2-oxo-6-(2-phenylethyl)-6-(propan-2-yl)-5,6-dihydro-2H-pyran-3-yl]sulfanyl}-2-methylphenyl)-4-cyanobenzene-1-sulfonamide] was run?
A: 9.1 nM

Q: Which Ki [2] does the source give for `Cc1cc(SC2C(=O)CC(CCc3ccccc3)(C(C)C)OC2=O)c(C(C)(C)C)cc1NS(=O)(=O)c1ccc(C(F)(F)F)cn1` (stereo unspecified) [N-(5-tert-butyl-4-{[4-hydroxy-2-oxo-6-(2-phenylethyl)-6-(propan-2-yl)-5,6-dihydro-2H-pyran-3-yl]sulfanyl}-2-methylphenyl)-5-(trifluoromethyl)pyridine-2-sulfonamide] here?
A: 1.04 nM

Q: For `Cc1cc(SC2C(=O)C[C@](CCc3ccccc3)(C(C)C)OC2=O)c(C(C)(C)C)cc1NS(=O)(=O)c1ccc(C(F)(F)F)cn1` (stereo partly drawn) [N-(5-tert-butyl-4-{[(6R)-4-hydroxy-2-oxo-6-(2-phenylethyl)-6-(propan-2-yl)-5,6-dihydro-2H-pyran-3-yl]sulfanyl}-2-methylphenyl)-5-(trifluoromethyl)pyridine-2-sulfonamide], which Ki [2] is on record?
A: 6.4 nM

Q: Which Ki [2] does the source give for `Cc1cc(SC2C(=O)C[C@](CCc3ccc(O)cc3)(C(C)C)OC2=O)c(C(C)(C)C)cc1NS(=O)(=O)c1ccc(C(F)(F)F)cn1` (stereo partly drawn) [N-(5-tert-butyl-4-{[(6R)-4-hydroxy-6-[2-(4-hydroxyphenyl)ethyl]-2-oxo-6-(propan-2-yl)-5,6-dihydro-2H-pyran-3-yl]sulfanyl}-2-methylphenyl)-5-(trifluoromethyl)pyridine-2-sulfonamide] here?
A: 9.54 nM

Q: With `Cc1cc(SC2C(=O)CC(C)(CCc3ccc(O)cc3)OC2=O)c(C(C)(C)C)cc1NS(=O)(=O)c1nccn1C` (stereo unspecified) [N-[5-tert-butyl-4-({4-hydroxy-6-[2-(4-hydroxyphenyl)ethyl]-6-methyl-2-oxo-5,6-dihydro-2H-pyran-3-yl}sulfanyl)-2-methylphenyl]-1-methyl-1H-imidazole-2-sulfonamide] as the compound, how does the IC50 ([2]; pH 6.2, 37 °C) read?
A: 1.9 nM

Q: For `Cc1cc(SC2C(=O)CC(C)(CCc3ccc(O)cc3)OC2=O)c(C(C)(C)C)cc1NS(=O)(=O)c1cccc(-c2cccs2)c1` (stereo unspecified) [N-[5-tert-butyl-4-({4-hydroxy-6-[2-(4-hydroxyphenyl)ethyl]-6-methyl-2-oxo-5,6-dihydro-2H-pyran-3-yl}sulfanyl)-2-methylphenyl]-3-(thiophen-2-yl)benzene-1-sulfonamide], which IC50 ([2]; pH 6.2, 37 °C) is on record?
A: 6.3 nM
